{
  "source": "patent US20090076092A1",
  "about": "“METHOD FOR DISRUPTING REPRODUCTIVE PERFORMANCE OF ARTHROPODS” (priority 2006, published 2009)",
  "key": {"[1]": {"test_system": "diamondback moth (Plutella xylostella)", "assay": "Test G: number of eggs (fecundity) of adult diamondback moth", "assay_type": "in vivo", "conditions": "10 ppm, control itself gave very few eggs", "from_the_text": "For evaluating the reproductive performance effects on diamondback moth (Plutella xylostella), a minimum of 120 larvae of diamondback moth of each sex were used. Male and female individuals of late instar larvae were separated and caged in individual containers containing Chinese kale. Male diamondback moths were identified by a white dot on the abdomen at the late instar larval stage. When pupae emerged, each pupa was caged separately until it emerged as adult.\n(§1) In addition, a control without test compound was included.\nGroups of 40 newly emerged (<24 hours) moths of the same sex were placed inside a meshed cage. The caged adult moths were then sprayed with the test solution, using a CO2 backpack sprayer at 500 L/Ha. For the control treatment, the adults were sprayed with water at a similar spray volume. The groups of treated individuals were then transferred into a clean container with a source of adult diet (i.e. a cotton wick soaked in 10% sucrose solution). Separate containers were used for different groups of treated insects. One day after treatment, the numbers of live, moribund and dead adults were counted. One live treated male and one live treated female were placed together in a copulation cage, which was a 300 mL clear plastic cup covered with nylon screen supplied with an adult diet source of 10% sucrose solution.\nEach pair of virgin adults was a replicate, and each treatment consisted of 10 to 20 replicates. Every day each pair of moths was moved to a new cup supplied with a diet of 10% sucrose solution.\nThe number of eggs laid per female moth was counted daily during the two days when the female moths actively produced viable eggs. The results, listed in Table G, indicate that no meaningful comparative information can be inferred, as the even the Control provided very few eggs per female moth; this indicates a systemic reproduction problem from unknown causes. However, had the Control worked, we expect to see the reproductive performance effects on diamondback moth."}, "[2]": {"test_system": "Colorado potato beetle, (Leptinotarsa decemlineata Say)", "assay": "Test E: sub-lethal treatments on adult Colorado potato beetles", "assay_type": "in vivo", "conditions": "for Total number of eggs: eggs collected daily for 20 days; for Mean number of viable larvae: larvae that developed to the pupal stage", "protocol": "For evaluating the reproductive performance effects on Colorado potato beetle, (Leptinotarsa decemlineata Say), a colony of potato beetles was cultured in the laboratory on potato plants. The pupae were provided soil material to facilitate pupation. On emergence from the soil, the adult beetles were separated into different cages to avoid initial contact between the male and female beetles. Immediately afterwards, the sex of each adult beetle was determined, and each individual insect was placed in a Petri dish and fed with pieces of excised potato leaves, before being placed in a whole plant-containing test unit for treatment with a test compound solution. Each treatment consisted of twenty adult beetles of the same age (10 males and 10 females), and a pair consisting of a male and female was considered to be a replicate; thus there were 10 replicates per treatment.\nTest solutions were prepared by diluting the test compound with acetone to provide the selected sub-lethal concentrations. Treatments included Compound 1 at 6.25 and 25 ppm as well as a control without test compound.\nA 15 day-old potato plant with 2 to 3 leaves in a round peat pot was infested with 10 pairs of adult beetles, and the test solution was applied at a spray pressure of 310 kPa using a moving boom tunnel sprayer equipped with one Teejet nozzle, model 8003-EVS and calibrated at speed of 1 m/s and 345 kPa to deliver about 280 L/ha. A piece of filter paper was wrapped around the plant and covered the soil, and the spray nozzle was placed 40 cm above the top of potted plant unit so that the upper surface of the leaves was the only part of the plant contacted with the spray mixture.\nAfter 24 h, one treated male and one treated female were transferred onto a covered container containing a potato plant to allow mating to occur. The test units were held in a growth chamber provided with 16 hours of light per day, 70% relative humidity and 20° C. Daily observations were made to record oviposition data. The eggs deposited by the females were collected daily and counted for 20 days. The collected eggs were then placed in a Petri dish lined with moistened paper filter to prevent dehydration, and maintained in an incubator at 20-24° C. with 16 hours of light per day, 70% relative humidity. The number of hatched eggs and the number of viable larvae that developed to the pupal stage were also recorded. The study was discontinued after the remaining unhatched eggs succumbed to fungal infections and high humidity."}, "[3]": {"test_system": "cotton bollworm", "assay": "Preliminary dose-response curve on cotton bollworm", "assay_type": "in vivo, Helicoverpa armigera", "conditions": "cotton bollworm adults; preliminary dose-response curve at 10, 25, 50, 80 and 100 ppm", "from_the_text": "(§2) The sub-lethal concentrations or doses used in the various tests for the specific pest species and populations tested in the context of the present invention were estimated from multiple-rate, dose-finding tests to determine the control rates and activity break rates. […] Therefore, depending on the target pest species, either the LC50 or a suitable concentration between LC50 and LC20 was selected as the sub-lethal dose. The specific procedures used to select the respective doses are described in each Test.\nSub-lethal rates of Compound 1 on cotton bollworm were estimated based on a preliminary dose-response curve using rates of 10, 25, 50, 80 and 100 ppm. […] Three treatments consisted of test solutions containing Compound 1 at 10, 20 and 30 ppm as well as a control sprayed with water without test compound."}, "[4]": {"test_system": "diamondback moth", "assay": "Previous laboratory studies of diamondback moth mortality", "assay_type": "in vivo", "conditions": "Plutella xylostella, read-out: mortality of the diamondback moth (LC20)", "from_the_text": "as §2, §1"}, "[5]": {"test_system": "beet armyworm", "assay": "Preliminary dose-response study on beet armyworm", "assay_type": "in vivo, Spodoptera exigua", "conditions": "beet armyworm adults; estimated from the dose-response curve (12.5, 25, 50 and 100 ppm)", "from_the_text": "as §2\nSub-lethal concentrations of Compound 1 on beet armyworm were defined based on a preliminary study using rates of 12.5, 25, 50 and 100 ppm."}},
  "data": [
    {"smiles": "CNC(=O)c1cc(Cl)cc(C)c1NC(=O)c1cc(Br)nn1-c1ncccc1Cl", "note": "[Compound 1, 3-bromo-N-[4-chloro-2-methyl-6-[(methylamino)carbonyl]phenyl]-1-(3-chloro-2-pyridinyl)-1H-pyrazole-5-carboxamide]", "values": [
      {"measurement": "No. of eggs per female moth", "setting": "[1]; 1 DAT", "value": 0},
      {"measurement": "No. of eggs per female moth", "setting": "[1]; 2 DAT", "value": 2.2},
      {"measurement": "fecundity and fertility data versus control", "setting": "[2]; 6.25 and 25 ppm", "value": "not significantly different from the control"},
      {"measurement": "Mean number of hatched eggs", "setting": "[2]; 6.25 ppm", "value": 188},
      {"measurement": "Total number of eggs", "setting": "[2]; 6.25 ppm", "value": 271},
      {"measurement": "Mean number of viable larvae", "setting": "[2]; 6.25 ppm", "value": 95},
      {"measurement": "Mean number of hatched eggs", "setting": "[2]; 25 ppm", "value": 219},
      {"measurement": "Total number of eggs", "setting": "[2]; 25 ppm", "value": 287},
      {"measurement": "Mean number of viable larvae", "setting": "[2]; 25 ppm", "value": 117},
      {"measurement": "LC20", "setting": "[3]", "value": 18, "unit": "ppm"},
      {"measurement": "LC50", "setting": "[3]", "value": 33, "unit": "ppm"},
      {"measurement": "mortality at 10 ppm", "setting": "[4]", "value": "~20", "unit": "%"},
      {"measurement": "LC20", "setting": "[5]", "value": 12.5, "unit": "ppm"},
      {"measurement": "LC50", "setting": "[5]", "value": 20, "unit": "ppm"},
      {"measurement": "LC80", "setting": "[5]", "value": 31, "unit": "ppm"}
    ]}
  ]
}
